Test results as given in ChEMBL document CHEMBL5136995, “Structure-based optimization of hydroxylactam as potent, cell-active inhibitors of lactate dehydrogenase” (Bioorg Med Chem Lett, 2022).

Assays:
[1] = Lipophilicity, logD of compound; type: physicochemical; details: octanol/water
[2] = molecular target: L-lactate dehydrogenase B chain (Homo sapiens, UniProt P07195); assay: Inhibition of LDHB (unknown origin)
[3] = Inhibition of lactate production in human MIA PaCa-2 cells; type: functional, cell-based
[4] = molecular target: L-lactate dehydrogenase A chain (Homo sapiens, UniProt P00338); assay: Inhibition of LDHA (unknown origin)
[5] = Plasma protein binding in mouse; type: ADME, cell-free; details: read-out: PPB
[6] = Apparent permeability across apical to basolateral side in MDCK cells at 100 uM by HPLC analysis; type: ADME, cell-based, Canis lupus familiaris; details: dog
[7] = Cmax in mouse at 50 mg/kg, po; type: ADME, organism-based; design: dose 50 mg/kg, route po; details: in vivo
[8] = AUC in mouse at 50 mg/kg, po; type: ADME, organism-based; design: dose 50 mg/kg, route po; details: in vivo
[9] = Volume of distribution at steady state in mouse at 1 mg/kg, iv; type: ADME, organism-based; details: in vivo, read-out: Vdss
[10] = Half-life in mouse at 1 mg/kg, iv; type: ADME, organism-based; details: in vivo
[11] = AUC in mouse at 200 mg/kg, po; type: ADME, organism-based; design: dose 200 mg/kg, route po; details: in vivo
[12] = Clearance in mouse at 1 mg/kg, iv; type: ADME, organism-based; details: in vivo
[13] = AUC in mouse at 5 mg/kg, po; type: ADME, organism-based; design: dose 5 mg/kg, route po; details: in vivo
[14] = Toxicity in mouse xenografted with human MIA PaCa-2 cells assessed as effect on body weight at 200 to 400 mg/kg administered twice a day for 28 days; type: organism-based; details: in vivo, 672 h, dose 200-400 mg/kg, time 28 day
[15] = Cmax in mouse at 100 mg/kg, po; type: ADME, organism-based; design: dose 100 mg/kg, route po; details: in vivo
[16] = Oral bioavailability in mouse at 5 mg/kg; type: ADME, organism-based; details: in vivo
[17] = AUC in mouse at 1 mg/kg, iv; type: ADME, organism-based; design: dose 1 mg/kg, route iv; details: in vivo
[18] = Cmax in mouse at 5 mg/kg, po; type: ADME, organism-based; design: dose 5 mg/kg, route po; details: in vivo
[19] = Cmax in mouse at 1 mg/kg, iv; type: ADME, organism-based; design: dose 1 mg/kg, route iv; details: in vivo
[20] = AUC in mouse at 100 mg/kg, po; type: ADME, organism-based; design: dose 100 mg/kg, route po; details: in vivo
[21] = Cmax in mouse at 200 mg/kg, po; type: ADME, organism-based; design: dose 200 mg/kg, route po; details: in vivo

Chain of L-lactate dehydrogenase B chain (P07195 whole entry): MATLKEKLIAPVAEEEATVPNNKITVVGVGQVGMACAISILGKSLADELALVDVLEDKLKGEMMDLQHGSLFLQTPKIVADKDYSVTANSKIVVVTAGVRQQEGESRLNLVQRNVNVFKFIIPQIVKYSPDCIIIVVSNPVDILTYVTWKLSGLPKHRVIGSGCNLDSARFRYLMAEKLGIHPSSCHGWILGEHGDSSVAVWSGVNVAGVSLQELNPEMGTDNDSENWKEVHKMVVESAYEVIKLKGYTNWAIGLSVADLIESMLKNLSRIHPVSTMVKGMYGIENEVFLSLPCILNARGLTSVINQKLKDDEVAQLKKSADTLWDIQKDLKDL

SMILES	IC50 [4]	also measured
O=C1NC(c2cccc(Nc3ccc(F)c(F)c3)n2)(c2cccc(Oc3cccc4ncccc34)n2)CC(O)=C1Sc1ccccc1Cl (stereo in doubt; 46)	3.8 nM	logD [1]: 2.2; IC50 [2]: 25 nM; IC50 [3]: 3.6 µM
Nc1cccc(C2(c3ccccc3)CC(O)=C(Sc3ccccc3Cl)C(=O)O2)c1 (stereo in doubt; 23)	450 nM	IC50 [2]: 3800 nM
O=C1OC(c2ccccn2)(c2ccccn2)CC(O)=C1Sc1ccccc1Cl	1200 nM	IC50 [2]: 2900 nM
O=C1NC(c2ccc(N3CCOCC3)cc2)(c2cccc(Oc3ccc(F)cc3)n2)CC(O)=C1Sc1ccccc1Cl (stereo in doubt; 50)	1.8 nM	fraction unbound [5]: 0.001; logD [1]: 1.9; Papp A→B at 100 µM [6]: 2.2 ×10⁻⁶ cm/s; IC50 [3]: 1.7 µM
Nc1cccc(C2(c3ccccc3)CC(O)=C(Sc3ccccc3Cl)C(=O)O2)c1 (stereo in doubt; 22)	130 nM	IC50 [2]: 250 nM
O=C1OC(c2ccccc2)(c2ccccc2O)CC(O)=C1Sc1ccccc1Cl (stereo in doubt; 14)	26 nM	IC50 [2]: 75 nM
CC(=O)Nc1cccc(C2(c3ccsc3)CC(O)=C(Sc3ccccc3Cl)C(=O)O2)c1 (racemic)	43 nM	–
O=C1OC(c2ccsc2)(c2cccc(Nc3ccc(F)cn3)c2)CC(O)=C1Sc1ccccc1Cl (stereo in doubt; 28)	2.9 nM	–
Nc1cccc(C2(c3ccsc3)CC(O)=C(Sc3ccccc3Cl)C(=O)O2)c1 (stereo in doubt; 21)	190 nM	–
O=C1OC(c2ccsc2)(c2cccc(Nc3ccc(F)cc3)n2)CC(O)=C1Sc1ccccc1Cl (stereo in doubt; 30)	2.9 nM	–
O=C1OC(c2ccccc2)(c2cscn2)CC(O)=C1Sc1ccccc1Cl (stereo in doubt; 9)	180 nM	IC50 [2]: 550 nM
O=C1OC(c2ccccc2)(c2ccsc2)CC(O)=C1Sc1ccccc1Cl (stereo in doubt; 6)	430 nM	–
O=C1NC(c2cccc(NCCC3CC3)n2)(c2cccc(Nc3ccc(F)c(F)c3)n2)CC(O)=C1Sc1ccccc1Cl (stereo in doubt; 40)	13 nM	–
O=C1N[C@@](c2cccc(Nc3ccc(F)cc3)n2)(c2cccc(Nc3ccc(F)c(F)c3)n2)CC(O)=C1Sc1ccccc1Cl	3.7 nM	–
O=C1NC(c2ccc(N3CCOCC3)cc2)(c2cccc(Oc3ccc(F)cc3)n2)CC(O)=C1Sc1ccccc1Cl (stereo in doubt; 51)	37 nM	–
O=C1OC(c2ccsc2)(c2cccc(Nc3ccc(F)cn3)c2)CC(O)=C1Sc1ccccc1Cl (stereo in doubt; 29)	63 nM	–
O=C1OC(c2ccccc2)(c2cccs2)CC(O)=C1Sc1ccccc1Cl (stereo in doubt; 7)	120 nM	IC50 [2]: 1300 nM
O=C1OC(c2ccccc2)(c2ccccn2)CC(O)=C1Sc1ccccc1Cl (stereo in doubt; 2)	920 nM	–
O=C1NC(c2cccc(NCc3ccc(F)cc3)n2)(c2cccc(Nc3ccc(F)c(F)c3)n2)CC(O)=C1Sc1ccccc1Cl (stereo in doubt; 43)	160 nM	–
O=C1OC(c2ccsc2)(c2ccccn2)CC(O)=C1Sc1ccccc1Cl (stereo in doubt; 12)	970 nM	IC50 [2]: 3200 nM
O=C1NC(c2ccsc2)(c2cccc(Nc3ccc(F)c(F)c3)n2)CC(O)=C1Sc1ccccc1Cl (stereo in doubt; 39)	75 nM	–
O=C1NC(c2cccc(Nc3ccc(F)c(F)c3)n2)(c2cccc(NC3CCOCC3)n2)CC(O)=C1Sc1ccccc1Cl (stereo in doubt; 36)	2.7 nM	logD [1]: 2.4; IC50 [3]: 7.2 µM
O=C1OC(c2ccccc2)(c2cscn2)CC(O)=C1Sc1ccccc1Cl (stereo in doubt; 10)	1100 nM	IC50 [2]: 2800 nM
O=C1NC(c2cccc(NCc3ccc(F)cc3)n2)(c2cccc(Nc3ccc(F)c(F)c3)n2)CC(O)=C1Sc1ccccc1Cl (stereo in doubt; 42)	8.6 nM	logD [1]: 2.5
O=C1OC(c2cccs2)(c2cccs2)CC(O)=C1Sc1ccccc1Cl	90 nM	–
O=C1OC(c2ccsc2)(c2cccc(NCC(F)(F)F)c2)CC(O)=C1Sc1ccccc1Cl (racemic)	66 nM	–

SMILES	IC50 [4]	also measured
O=C1NC(c2cccc(Nc3ccc(F)c(F)c3)n2)(c2cccc(Oc3ccccc3)n2)CC(O)=C1Sc1ccccc1Cl (stereo in doubt; 44)	2.5 nM	logD [1]: 2.6; IC50 [3]: 5.3 µM
O=C1O[C@](c2ccsc2)(c2cccc(Nc3ccc(F)cc3)c2)CC(O)=C1Sc1ccccc1Cl	36 nM	–
O=C1NC(c2cccc(Nc3ccc(F)c(F)c3)n2)(c2cccc(Oc3ccccc3)n2)CC(O)=C1Sc1ccccc1Cl (stereo in doubt; 45)	3.2 nM	–
O=C1OC(c2ccccc2)(c2ccccn2)CC(O)=C1Sc1ccccc1Cl (stereo in doubt; 3)	2400 nM	–
O=C1NC(c2ccc(N3CCOCC3)cc2)(c2cccc(Nc3ccc(F)cc3)n2)CC(O)=C1Sc1ccccc1Cl (stereo in doubt; 48)	2.5 nM	logD [1]: 2
O=C1NC(c2cccc(NCCC3CC3)n2)(c2cccc(Nc3ccc(F)c(F)c3)n2)CC(O)=C1Sc1ccccc1Cl (stereo in doubt; 41)	190 nM	–
O=C1NC(c2ccc(N3CCOCC3)cc2)(c2cccc(Nc3ccc(F)cc3)n2)CC(O)=C1Sc1ccccc1Cl (stereo in doubt; 49)	11 nM	–
O=C1OC(c2ccsc2)(c2ccccc2F)CC(O)=C1Sc1ccccc1Cl (stereo in doubt; 18)	220 nM	–
O=C1OC(c2ccsc2)(c2ccccc2O)CC(O)=C1Sc1ccccc1Cl (stereo in doubt; 17)	22 nM	–
O=C1NC(c2cccc(Nc3ccc(F)c(F)c3)n2)(c2cccc(NC3CCOCC3)n2)CC(O)=C1Sc1ccccc1Cl (stereo in doubt; 37)	55 nM	–
O=C1OC(c2ccccc2)(c2cccs2)CC(O)=C1Sc1ccccc1Cl (stereo in doubt; 8)	220 nM	IC50 [2]: 1500 nM
O=C1NC(c2cccc(Nc3ccc(F)c(F)c3)n2)(c2cccc(NC3CCCCC3)n2)CC(O)=C1Sc1ccccc1Cl (stereo in doubt; 34)	0.9 nM	logD [1]: 2.6; IC50 [3]: 2.2 µM
O=C1OC(c2ccsc2)(c2ccccn2)CC(O)=C1Sc1ccccc1Cl (stereo in doubt; 11)	130 nM	IC50 [2]: 540 nM
O=C1OC(c2ccsc2)(c2ccccc2F)CC(O)=C1Sc1ccccc1Cl (stereo in doubt; 19)	450 nM	–
O=C1NC(c2cccc(Nc3ccc(F)c(F)c3)n2)(c2cccc(NC3CCCCC3)n2)CC(O)=C1Sc1ccccc1Cl (stereo in doubt; 35)	4.4 nM	–
O=C1N[C@](c2cccc(Nc3ccc(F)cc3)n2)(c2cccc(Nc3ccc(F)c(F)c3)n2)CC(O)=C1Sc1ccccc1Cl	1.6 nM	Cmax [7]: 23.3 µM; AUC [8]: 71.2 µM·h; Vd [9]: 0.671 L/kg; half-life [10]: 169 min; fraction unbound [5]: 0.001; logD [1]: 2.2; AUC [11]: 411 µM·h; clearance [12]: 4.89 mL/min/kg; AUC [13]: 19.4 µM·h; Activity [14]: Non-Toxic; Cmax [15]: 66.9 µM; bioavailability [16]: 59.5%; Papp A→B at 100 µM [6]: 4.6 ×10⁻⁶ cm/s; IC50 [3]: 2 µM; AUC [17]: 6.5 µM·h; Cmax [18]: 5.95 µM; Cmax [19]: 7.36 µM; AUC [20]: 235 µM·h; Cmax [21]: 117 µM
O=C1OC(c2ccsc2)(c2ccccc2O)CC(O)=C1Sc1ccccc1Cl (stereo in doubt; 16)	2.2 nM	–
O=C1O[C@@](c2ccsc2)(c2cccc(Nc3ccc(F)cc3)c2)CC(O)=C1Sc1ccccc1Cl	4 nM	–
O=C1OC(c2ccccc2)(c2ccccc2)CC(O)=C1Sc1ccccc1Cl	1000 nM	IC50 [2]: 3100 nM
O=C1OC(c2ccccc2)(c2ccccc2O)CC(O)=C1Sc1ccccc1Cl (stereo in doubt; 15)	430 nM	IC50 [2]: 950 nM
O=C1NC(c2ccsc2)(c2cccc(Nc3ccc(F)c(F)c3)n2)CC(O)=C1Sc1ccccc1Cl (stereo in doubt; 38)	10 nM	logD [1]: 1.1; IC50 [3]: 9.1 µM
O=C1NC(c2cccc(Nc3ccc(F)c(F)c3)n2)(c2cccc(Oc3cccc4ncccc34)n2)CC(O)=C1Sc1ccccc1Cl (stereo in doubt; 47)	68 nM	IC50 [2]: 650 nM
O=C1OC(c2ccccc2)(c2ccsc2)CC(O)=C1Sc1ccccc1Cl (stereo in doubt; 5)	90 nM	–
Nc1cccc(C2(c3ccsc3)CC(O)=C(Sc3ccccc3Cl)C(=O)O2)c1 (stereo in doubt; 20)	13 nM	–
O=C1OC(c2ccsc2)(c2cccc(Nc3ccc(F)cc3)n2)CC(O)=C1Sc1ccccc1Cl (stereo in doubt; 31)	6.9 nM	–
